{"source": "patent US20240400553A1", "about": "“AMINE BASED MATRIPTASE 2 INHIBITORS AND USES THEREOF” (Disc Medicine, Inc., priority 2023, published 2024)"}
{"target": "T1, Human Recombinant Matriptase 2 (Homo sapiens, UniProt Q8IU80)", "T1 construct": "made in house", "T1 sequence (Q8IU80 1-811)": "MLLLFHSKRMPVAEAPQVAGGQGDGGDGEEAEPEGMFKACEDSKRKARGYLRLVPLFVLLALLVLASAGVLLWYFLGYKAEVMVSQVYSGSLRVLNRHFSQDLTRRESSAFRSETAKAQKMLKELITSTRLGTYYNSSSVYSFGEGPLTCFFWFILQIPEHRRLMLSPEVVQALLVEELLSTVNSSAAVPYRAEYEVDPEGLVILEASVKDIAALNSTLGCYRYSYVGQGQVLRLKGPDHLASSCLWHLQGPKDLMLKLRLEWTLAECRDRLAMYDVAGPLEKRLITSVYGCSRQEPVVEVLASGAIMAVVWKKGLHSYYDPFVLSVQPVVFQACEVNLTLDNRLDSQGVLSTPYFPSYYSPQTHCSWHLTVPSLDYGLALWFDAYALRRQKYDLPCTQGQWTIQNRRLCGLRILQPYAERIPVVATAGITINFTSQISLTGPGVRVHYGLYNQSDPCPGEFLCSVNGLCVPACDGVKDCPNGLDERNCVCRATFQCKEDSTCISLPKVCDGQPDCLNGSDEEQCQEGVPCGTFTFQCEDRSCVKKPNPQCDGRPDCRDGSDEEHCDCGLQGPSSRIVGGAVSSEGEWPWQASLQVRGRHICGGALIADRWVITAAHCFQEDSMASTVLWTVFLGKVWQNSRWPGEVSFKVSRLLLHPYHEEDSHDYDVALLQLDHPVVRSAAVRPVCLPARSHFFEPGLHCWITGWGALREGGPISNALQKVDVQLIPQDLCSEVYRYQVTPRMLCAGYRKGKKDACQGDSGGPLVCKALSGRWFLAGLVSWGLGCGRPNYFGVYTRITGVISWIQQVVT", "experiment": "Matriptase 2 inhibition, fluorescence based assay (Method I)", "type": "biochemical", "details": "Table A; Ki of Matriptase-2; read-out: Mat-2 Ki", "method_in_brief": "(§1)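 In-house recombinant enzyme (3.5 nM), preincubated 30 min with compound, then Boc-Gln-Ala-Arg-AMC substrate (62 μM) in 50 mM Tris pH 7.5, 150 mM NaCl, 0.01% gelatin, 1% DMSO, 25 °C. Fluorescence (Ex 360/Em 480 nm) read 60 min after substrate; IC50 from variable-slope sigmoidal fit of % inhibition.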", "units": {"Ki": "µM"}}
{"smiles": "Cc1cccc(C)c1CS(=O)(=O)Nc1cc(Cn2c(C(=O)OC[C@H]3CNCCO3)cc3ccc(CN)nc32)c2ccccc2c1", "note": "[Compound 182, [(2R)-morpholin-2-yl]-methyl 6-(aminometh-yl)-1-({3-[(2,6-dimeth-ylphenyl)methanesulfon-amido]naphthalen-1-yl}-methyl)-1H-pyrrolo[2,3-b]pyridine-2-carboxylate]", "Ki": "≤ 0.1"}
{"smiles": "Cc1cccc(C)c1CS(=O)(=O)Nc1cc(Cn2c(C(=O)NCCC3CCN(C)CC3)cc3ccc(CN)nc32)c2ccccc2c1", "note": "[Compound 183, 6-(aminomethyl)-1-({3-[(2,6-dimethylphenyl)-methanesulfonamido]-naphthalen-1-yl}meth-yl)-N-[2-(1-methylpiper-idin-4-yl)ethyl]-1H-pyr-rolo[2,3-b]pyridine-2-carboxamide]", "Ki": "≤ 0.1"}
{"smiles": "Cc1cccc(C)c1CS(=O)(=O)Nc1cc(Cn2c(C(=O)NCC3CCN(C)CC3)cc3ccc(CN)nc32)c2ccccc2c1", "note": "[Compound 184, 6-(aminomethyl)-1-({3-[(2,6-dimethylphenyl)-methanesulfonamido]-naphthalen-1-yl}meth-yl)-N-[(1-methylpiper-idin-4-yl)methyl]-1H-pyrrolo[2,3-b]pyridine-2-carboxamide]", "Ki": "≤ 0.1"}
{"smiles": "Cc1cccc(C)c1CS(=O)(=O)Nc1cc(Cn2c(C(=O)OCCC3CCN(C)CC3)cc3ccc(CN)nc32)c2ccccc2c1", "note": "[Compound 185, 2-(1-methylpiperidin-4-yl)ethyl 6-(aminometh-yl)-1-({3-[(2,6-dimethyl-phenyl)methanesulfon-amido]naphthalen-1-yl}-methyl)-1H-pyrrolo[2,3-b]pyridine-2-carboxylate]", "Ki": "≤ 0.1"}
{"smiles": "Cc1cccc(C)c1CS(=O)(=O)Nc1cc(Cn2c(C(=O)OCCN3CCN(C)CC3)cc3ccc(CN)nc32)c2ccccc2c1", "note": "[Compound 186]", "Ki": "≤ 0.1"}
{"smiles": "Cc1cccc(C)c1CS(=O)(=O)Nc1cc(Cn2c(C(=O)OCc3cncn3C)cc3ccc(CN)nc32)c2ccccc2c1", "note": "[Compound 187, (1-methyl-1H-imidazol-5-yl)methyl 6-(amino-methyl)-1-({3-[(2,6-dimethylphenyl)methane-sulfonamido]naphthalen-1-yl}methyl)-1H-pyr-rolo[2,3-b]pyridine-2-carboxylate]", "Ki": "≤ 0.1"}
{"smiles": "Cc1cccc(C)c1CS(=O)(=O)Nc1cc(Cn2c(C(=O)OCC3CCN(C)CC3)cc3ccc(CN)nc32)c2ccccc2c1", "note": "[Compound 188, (1-methylpiperidin-4-yl)methyl 6-(aminometh-yl)-1-({3-[(2,6-dimethyl-phenyl)methanesulfon-amido]naphthalen-1-yl}-methyl)-1H-pyrrolo[2,3-b]pyridine-2-carboxylate]", "Ki": "≤ 0.1"}
{"smiles": "Cc1cccc(C)c1CS(=O)(=O)Nc1cc(Cn2c(C(=O)OC[C@H]3COCCN3)cc3ccc(CN)nc32)c2ccccc2c1", "note": "[Compound 189, [(3R)-morpholin-3-yl]-methyl 6-(aminomethyl)-1-({3-[(2,6-dimethyl-phenyl)methanesulfon-amido]naphthalen-1-yl}-methyl)-1H-pyrrolo[2,3-b]pyridine-2-carboxylate]", "Ki": "≤ 0.1"}
{"smiles": "Cc1cccc(C)c1CS(=O)(=O)Nc1cc(Cn2c(C(=O)OCCCN3CCOCC3)cc3ccc(CN)nc32)c2ccccc2c1", "note": "[Compound 190, 3-(morpholin-4-yl)prop-yl 6-(aminomethyl)-1-({3-[(2,6-dimethylphen-yl)methanesulfonamido]-naphthalen-1-yl}meth-yl)-1H-pyrrolo[2,3-b]-pyridine-2-carboxylate]", "Ki": "≤ 0.1"}
{"smiles": "Cc1cccc(C)c1CS(=O)(=O)Nc1cc(Cn2c(C(=O)OCc3nccn3C)cc3ccc(CN)nc32)c2ccccc2c1", "note": "[Compound 191, (1-methyl-1H-imidazol-2-yl)methyl 6-(amino-methyl)-1-({3-[(2,6-dimethylphenyl)meth-anesulfonamido]naph-thalen-1-yl}methyl)-1H-pyrrolo[2,3-b]pyridine-2-carboxylate]", "Ki": "≤ 0.1"}
{"smiles": "COCCN1CCC(COC(=O)c2cc3ccc(CN)nc3n2Cc2cc(NS(=O)(=O)Cc3c(C)cccc3C)cc3ccccc23)CC1", "note": "[Compound 192, [1-(2-methoxyethyl)-piperidin-4-yl]methyl 6-(aminomethyl)-1-({3-[(2,6-dimethylphenyl)-methanesulfonamido]-naphthalen-1-yl}meth-yl)-1H-pyrrolo[2,3-b]-pyridine-2-carboxylate]", "Ki": "≤ 0.1"}
{"smiles": "Cc1cccc(C)c1CS(=O)(=O)Nc1cc(Cn2c(C(=O)O)cc3ccc(CN)nc32)c2ccccc2c1", "note": "[Compound 195, 6-(aminomethyl)-1-({3-[(2,6-dimethylphenyl)-methanesulfonamido]-naphthalen-1-yl}methyl)-1H-pyrrolo[2,3-b]pyr-idine-2-carboxylic acid]", "Ki": "≤ 0.1"}
{"smiles": "Cc1cccc(C)c1CS(=O)(=O)Nc1cc(Cn2c(C(=O)NCCN3CCOCC3)cc3ccc(CN)nc32)c2ccccc2c1", "note": "[Compound 196, 6-(aminomethyl)-1-({3-[(2,6-dimethylphenyl)-methanesulfonamido]-naphthalen-1-yl}meth-yl)-N-[2-(morpholin-4-yl)ethyl]-1H-pyrrolo-[2,3-b]pyridine-2-car-boxamide]", "Ki": "≤ 0.1"}
{"smiles": "CC(=O)N(C)CCOC(=O)c1cc2ccc(CN)nc2n1Cc1cc(NS(=O)(=O)Cc2c(C)cccc2C)cc2ccccc12", "note": "[Compound 197, 2-(N-methylacetamido)-ethyl 6-(aminomethyl)-1-({3-[(2,6-dimethylphen-yl)methanesulfonamido]-naphthalen-1-yl}methyl)-1H-pyrrolo[2,3-b]pyr-idine-2-carboxylate]", "Ki": "≤ 0.1"}
{"target": "T1, Human Recombinant Matriptase 2", "experiment": "Matriptase 2 inhibition, fluorescence based assay (Method I)", "type": "biochemical", "details": "Table A; Ki of Matriptase-2 given as class symbols; read-out: Mat-2 Ki", "method_in_brief": "as §1", "units": {"Ki": "µM"}}
{"smiles": "Cc1cccc(C)c1CS(=O)(=O)Nc1cc(Cn2c(C(=O)OCC3CCN(C=O)CC3)cc3ccc(CN)nc32)c2ccccc2c1", "note": "[Compound 198, (1-formylpiperidin-4-yl)-methyl 6-(aminomethyl)-1-({3-[(2,6-dimethyl-phenyl)methanesulfon-amido]naphthalen-1-yl}-methyl)-1H-pyrrolo[2,3-b]pyridine-2-carboxylate]", "Ki": "≤ 0.1"}
{"smiles": "Cc1cccc(C)c1CS(=O)(=O)Nc1cc(Cn2c(C(=O)OCCN3CCOCC3)cc3ccc(CN)nc32)c2ccccc2c1", "note": "[Compound 199, 2-(morpholin-4-yl)ethyl 6-(aminomethyl)-1-({3-[(2,6-dimethylphenyl)-methanesulfonamido]-naphthalen-1-yl}meth-yl)-1H-pyrrolo[2,3-b]-pyridine-2-carboxylate]", "Ki": "0.1 to 0.5"}
{"smiles": "CNCCOC(=O)c1cc2ccc(CN)nc2n1Cc1cc(NS(=O)(=O)Cc2c(C)cccc2C)cc2ccccc12", "note": "[Compound 200, 2-(methylamino)ethyl 6-(aminomethyl)-1-({3-[(2,6-dimethylphenyl)-methanesulfonamido]-naphthalen-1-yl}meth-yl)-1H-pyrrolo[2,3-b]-pyridine-2-carboxylate]", "Ki": "0.1 to 0.5"}
{"smiles": "Cc1cccc(C)c1CS(=O)(=O)Nc1cc(Cn2c(C(=O)OCCN(C)C)cc3ccc(CN)nc32)c2ccccc2c1", "note": "[Compound 201, 2-(dimethylamino)ethyl 6-(aminomethyl)-1-({3-[(2,6-dimethylphenyl)-methanesulfonamido]-naphthalen-1-yl}methyl)-1H-pyrrolo[2,3-b]pyr-idine-2-carboxylate]", "Ki": "0.1 to 0.5"}
{"smiles": "CCOC(=O)c1cc2ccc(CN)nc2n1Cc1cc(NS(=O)(=O)Cc2c(C)cccc2C)cc2ccccc12", "note": "[Compound 202, ethyl 6-(aminomethyl)-1-({3-[(2,6-dimethyl-phenyl)methanesulfon-amido]naphthalen-1-yl}-methyl)-1H-pyrrolo[2,3-b]pyridine-2-carboxylate]", "Ki": "0.5 to 3"}
{"smiles": "CN1CCC(COC(=O)c2cc3ccc(CN)nc3n2Cc2cc(NS(=O)(=O)Cc3ccccc3O)cc3ccccc23)CC1", "note": "[Compound 203]", "Ki": "≤ 0.1"}
{"smiles": "Cc1ccccc1CS(=O)(=O)Nc1cc(Cn2c(C(=O)OCC3CCN(C)CC3)cc3ccc(CN)nc32)c2ccccc2c1", "note": "[Compound 204]", "Ki": "≤ 0.1"}
{"smiles": "CN1CCC(COC(=O)c2cc3ccc(CN)nc3n2Cc2cc(NS(=O)(=O)Cc3ccccc3F)cc3ccccc23)CC1", "note": "[Compound 205, (1-methylpiperidin-4-yl)methyl 6-(aminometh-yl)-1-({3-[(2-fluorophen-yl)methanesulfonamido]-naphthalen-1-yl}methyl)-1H-pyrrolo[2,3-b]pyr-idine-2-carboxylate]", "Ki": "≤ 0.1"}
{"smiles": "CN1CCC(COC(=O)c2cc3ccc(CN)nc3n2Cc2cc(NS(=O)(=O)Cc3ccc(F)cc3)cc3ccccc23)CC1", "note": "[Compound 206, (1-methylpiperidin-4-yl)-methyl 6-(aminomethyl)-1-({3-[(4-fluorophenyl)-methanesulfonamido]-naphthalen-1-yl}meth-yl)-1H-pyrrolo[2,3-b]-pyridine-2-carboxylate]", "Ki": "≤ 0.1"}
